The structures appear in SMILES notation.

For data set [1] the following is noted: mouse, in vivo.
The target of a further data set is ACE2 (Homo sapiens, UniProt Q9BYF1). Put plainly: LSPR assay, binding to ACE2.
Chain of ACE2 (Q9BYF1 18-805): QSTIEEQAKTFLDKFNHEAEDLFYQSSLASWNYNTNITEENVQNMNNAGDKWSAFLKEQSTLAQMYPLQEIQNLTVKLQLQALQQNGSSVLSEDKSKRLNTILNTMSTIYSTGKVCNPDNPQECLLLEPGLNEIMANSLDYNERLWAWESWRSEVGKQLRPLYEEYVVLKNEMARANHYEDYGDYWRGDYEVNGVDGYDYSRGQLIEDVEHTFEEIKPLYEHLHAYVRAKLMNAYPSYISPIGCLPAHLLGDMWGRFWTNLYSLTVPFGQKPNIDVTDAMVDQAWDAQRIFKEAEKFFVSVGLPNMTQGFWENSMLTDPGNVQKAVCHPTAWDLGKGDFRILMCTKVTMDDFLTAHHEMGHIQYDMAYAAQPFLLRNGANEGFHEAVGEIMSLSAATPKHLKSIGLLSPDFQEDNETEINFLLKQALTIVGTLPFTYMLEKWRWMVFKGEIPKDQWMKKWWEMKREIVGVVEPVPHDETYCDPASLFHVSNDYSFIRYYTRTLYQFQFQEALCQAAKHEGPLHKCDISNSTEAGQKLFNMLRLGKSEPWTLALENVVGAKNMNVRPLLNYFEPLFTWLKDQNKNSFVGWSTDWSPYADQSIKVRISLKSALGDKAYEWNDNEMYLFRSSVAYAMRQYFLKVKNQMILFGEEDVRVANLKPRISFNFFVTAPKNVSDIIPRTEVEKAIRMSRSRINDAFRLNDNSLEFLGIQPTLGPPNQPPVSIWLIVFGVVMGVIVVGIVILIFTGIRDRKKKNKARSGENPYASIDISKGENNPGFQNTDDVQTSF

Usually Kd stands for the free concentration of one partner at which half of the binding sites on the other are occupied at equilibrium, for simple one-to-one binding. High values mean weaker binding, low ones tighter binding. Usually koff stands for the first-order rate constant of dissociation. Lower therefore signals slow dissociation. One may read the kon as the second-order rate constant of association. The low end stands for slow association, the high end for fast association. On to `CC(C)C[C@H](NC(=O)[C@@H]1CCCN1C(=O)[C@H](Cc1ccccc1)NC(=O)[C@H](Cc1ccc(O)cc1)NC(=O)[C@H](CS)NC(=O)[C@H](CC(N)=O)NC(=O)[C@H](Cc1ccccc1)NC(=O)CNC(=O)[C@H](CCC(=O)O)NC(=O)[C@@H](NC(=O)[C@H](CCCCN)NC(=O)[C@H](CCCCN)NC(=O)[C@H](CCCCN)NC(=O)[C@H](CCCCN)NC(=O)[C@H](CCCCN)NC(=O)[C@@H](N)CCCCN)C(C)C)C(=O)N[C@@H](CCC(N)=O)C(=O)N[C@@H](CO)C(=O)O` [AYp28], for which the cytotoxicity result in the data set with HEK293T/hACE2 cells is recorded as “no significant cytotoxicity”. In data set [1], the “distribution in livers and kidneys” value was “not in the kidneys and livers”; the “distribution in lungs and small intestine” value is “preferentially distributed in the lungs and intestine”. The compound further showed a dissociation constant Kd at ACE2 of 47.6 nM. At ACE2 (pH 7.4), this compound registered a koff of 0.000205 s⁻¹ and a kon of 4310 M⁻¹ s⁻¹.
